Assay results taken from PubChem BioAssay AID1996.
Values after ≈ are worked out from the molar mass of the structure shown.

Conditions: buffer; pH 7.4; 200.0 µM

SMILES | solubility kinetic [µg/mL]
CC1=C(C)C(OCCCl)N(c2cc(O)c(Cl)cc2F)C1=O (stereo unspecified) | 46.3 (≈ 139 µM)
O=C(NCc1cccnc1)c1cnc2ccccc2n1 | > 39.6
COc1ccccc1CNC(=O)c1cc(C(C)=O)c[nH]1 | 25.1 (≈ 92.2 µM)
O=C(Cc1ccsc1)Nc1ccc(Cl)cc1Cl | 3.8 (≈ 13.3 µM)
CCCS(=O)(=O)c1ccc(COC(=O)c2ccc(NC(C)=O)cc2)cc1 | 25.5 (≈ 67.9 µM)
Cn1cc(C(=O)NC2CC2)c2ccccc21 | 31.9 (≈ 149 µM)
COc1cccc(OCC(=O)NCC2CCCO2)c1 (stereo unspecified) | > 39.8
CCOc1cnc(C(=O)NNC(=O)c2ccccc2Br)o1 | > 53.1
Cl.Oc1ccc(CCNc2c3ccccc3nc3ccccc23)cc1O | 44.7
CCCNc1nc(Cl)nc(Nc2ccc(Cl)cc2)n1 | 1.1 (≈ 3.69 µM)
COc1ccccc1NC(=O)C1CCCN1C(=O)NC1CCCCC1 (stereo unspecified) | 42.4 (≈ 123 µM)
O=C(NC1CCCC1)c1ccc(Cl)s1 | 30.7 (≈ 134 µM)
CNC(=S)/N=C/NOCc1c(Cl)cccc1Cl | 9.5 (≈ 32.5 µM)
Cc1onc(C(=O)Nc2cccc(C(F)(F)F)c2)c1[N+](=O)[O-] | 32.4 (≈ 103 µM)
COc1ccccc1-n1c(/C=C/c2ccccn2)nc2ccccc2c1=O | 7.3 (≈ 20.5 µM)
CC(C)(C)c1ccc(S(=O)(=O)N2CCN(C3CCCC3)CC2)cc1 | < 0.4
CCNC(=O)COC(=O)CCNC(=O)c1ccc(Cl)cc1 | > 46.9
NC(=O)C1(C(N)=O)OC1c1ccc(Cl)cc1Cl (stereo unspecified) | > 41.3
COC(=O)[C@@H](NC(=O)NC1CCCCC1C)C(C)C (stereo partly specified) | > 40.6
O=C(COC(=O)CNC(=O)c1ccccc1)NCCCc1ccccc1 | 52.3 (≈ 148 µM)
COc1cc(C)ccc1OCC(=O)NCC1CCCO1 (stereo unspecified) | > 41.9
Cc1nn(CC(=O)NC2(C#N)CCCCC2)c(C)c1[N+](=O)[O-] | > 45.8
O=C(O)CNS(=O)(=O)c1ccc2[nH]c(=O)c(=O)[nH]c2c1 | > 44.9

SMILES | solubility kinetic [µg/mL]
COc1ccc(-n2ncc3c(=O)n(CC(C)=O)cnc32)cc1 | > 44.7
O=C(CNS(=O)(=O)c1ccccc1)NCC(=O)N1CCCCC1 | > 50.9
Cc1ccc(-c2nc(-c3cccnc3)sc2CC(=O)O)cc1 | 42.4 (≈ 137 µM)
Cc1ccc(OCCc2csc(N)n2)cc1 | 34.8 (≈ 149 µM)
C/C(CC(C)C)=N\Oc1nc(C)cc(C)n1 | > 33.2
Cc1cccc(CC(C)NC(=O)CCc2nnc(-c3ccccc3)o2)n1 (stereo unspecified) | > 52.6
CCOC(=O)C(=CNc1cc(C)ccc1-n1cccc1)C(=O)OCC | 0.7 (≈ 2.04 µM)
Cc1ccc(NC(=O)NC2CCCCCCC2)c(C)c1 | < 0.3
Cc1ccc(S(=O)(=O)N(C)CC(=O)NCCCn2ccnc2)cc1 | 48.6 (≈ 139 µM)
CCC1CCC(N2CCN(c3cccc(OC)c3)CC2)CC1 (stereo unspecified) | 32.6 (≈ 108 µM)
Cl.O=C(NCCCn1ccnc1)c1cc(Cl)cc(Cl)c1 | > 50.2
COc1ccccc1-c1nc(COc2ccc(Cl)cc2Cl)no1 | < 0.4
Cc1cccc(OCC(=O)NCCNC(=O)c2ccncc2)c1 | 42.3 (≈ 135 µM)
Cc1ccc(C(=O)C[n+]2cccc(C(N)=O)c2)cc1.[Br-] | > 50.3
COc1ccc(Br)c(C(=O)OCC(=O)NC(=O)NC2CCCC2)c1 | 19.5 (≈ 48.8 µM)
CCN(CC(=O)NCc1ccncc1)S(=O)(=O)c1ccccc1 | > 50
Cc1ccc(-c2ccc(C#N)c(=O)n2CC(=O)N(C)C)cc1 | 3.3 (≈ 11.2 µM)
COc1cc(C(=O)OCC(C)=O)c([N+](=O)[O-])cc1OC | > 42.5
Nc1ccc(OCCc2ccccc2)cc1 | 28.3 (≈ 133 µM)
Cc1cc(=O)oc2cc(OCC(=O)Nc3nccs3)ccc12 | 4.1 (≈ 13 µM)
COc1ccc(S(=O)(=O)N2CCCCCC2)cc1N | > 42.7
CN(C)C(CNC(=O)c1ccc2ccccc2n1)c1ccccc1 (stereo unspecified) | 27.5 (≈ 86.1 µM)
CC(=O)N/N=C(\C)c1cccc(C(F)(F)F)c1 | > 36.6

SMILES | solubility kinetic [µg/mL]
Cc1cnc(NC(=O)Cc2ccc(Br)cc2)s1 | < 0.3
C/C(=N\Nc1nccnc1Cl)c1ccc(F)cc1 | > 39.7
C[C@H](NCc1c[nH]c2ccccc12)c1ccccc1 | > 37.6
Cc1ccsc1C(=O)OCc1nc2ccsc2c(=O)[nH]1 | > 46
C=CCSc1nc2c(c(=O)[nH]1)C(c1ccccc1)C(C#N)=C(N)O2 (stereo unspecified) | 48.7 (≈ 144 µM)
CC1CCCCN1C(=O)CCS(=O)(=O)c1cccc2nonc12 (stereo unspecified) | 41.8 (≈ 124 µM)
CC1=CC(C)C(C(=O)O)C(C(=O)N2CCN(C)CC2)C1 (stereo unspecified) | > 42.1
CC(C)Cc1ccc(C(=O)NCc2ccc3c(c2)OCO3)o1 | 28.3 (≈ 93.9 µM)
CCOc1ccc(OCC(=O)OC(C)C(=O)NC2CCCC2)cc1 (stereo unspecified) | > 50.3
N#Cc1ccc(C2N=C(c3ccccc3)NO2)cc1 (stereo unspecified) | 15.3 (≈ 61.4 µM)
O=C(CCC(=O)c1ccccc1)NCCOc1ccccc1 | > 44.6
O=C(NCc1cccnc1)C1CCN(S(=O)(=O)c2cc([N+](=O)[O-])ccc2Cl)CC1 | > 65.8
CCCNC(=O)c1oc2ccc3c(c2c1C)C(O)CC(C)(C)O3 (stereo unspecified) | > 47.6
Cn1c(N)c(C(=O)COC(=O)Cc2c(F)cccc2Cl)c(=O)n(C)c1=O | 31.9 (≈ 83.1 µM)
Cc1nc(/C(N)=N/OC(=O)Cc2ccccc2)no1 | 24.4 (≈ 93.8 µM)
Brc1ccc(CNc2ccc3ncccc3c2)cc1 | < 0.3
COc1ccccc1NC(=O)/C(=C/c1cccs1)NC(=O)c1ccco1 | > 55.3
S=C(NCCCc1ccccc1)NC1CCCCC1 | 22.5 (≈ 81.4 µM)
CCN(Cc1ccncc1)C(=O)c1ccc(C)o1 | > 36.6
O=C(/C=C/c1ccc(Cl)c([N+](=O)[O-])c1)c1cccnc1 | 2.2 (≈ 7.62 µM)
O=C(CCl)Nc1c[nH]c(=O)[nH]c1=O | > 30.5
COc1ccc(-c2nc(CN3CCN(c4ncccn4)CC3)c(C)o2)cc1C | 39 (≈ 103 µM)

Further lines, results first:

solubility kinetic [µg/mL] | SMILES
7.1 (≈ 22.1 µM) | COc1ccc(CC(=O)Nc2cccc3ccccc23)cc1OC
2 (≈ 6.26 µM) | CC(OC(=O)c1ccccc1O)C(=O)Nc1cccc(Cl)c1 (stereo unspecified)
4.6 (≈ 14.3 µM) | Cc1ccc(NC(=O)CCN2C(=O)c3ccccc3C2=O)cc1C
39 (≈ 130 µM) | CN(C(=O)COc1ncnc2ccccc12)C1CCCCC1
26.5 (≈ 116 µM) | COC(=O)c1cccnc1Oc1ccccc1
13.3 (≈ 41.6 µM) | CSCc1ccc(C(=O)OCc2nc3ccccc3s2)o1
27.5 (≈ 109 µM) | O=C(Nc1ccccc1)Nc1ccc2ncoc2c1
> 37.1 | O=C(C1COc2ccccc2O1)N1CCCCC1 (stereo unspecified)
6.2 (≈ 19.3 µM) | O=C(COC(=O)c1ccccc1O)Nc1ccc2ccccc2c1
9.3 (≈ 29.4 µM) | O=C(Nc1cccc(Cl)c1)OC1CCCCc2cccnc21 (stereo unspecified)
5.6 (≈ 16.8 µM) | Cc1cc(C)c2nc(C)cc(Nc3ccc(C(=O)N(C)C)cc3)c2c1
36.5 (≈ 104 µM) | CCN(Cc1nc(-c2ccccc2)no1)C(=O)c1ccc2c(c1)OCO2
2.2 (≈ 6.79 µM) | N=C1SCC(=O)N1c1ncc(Cc2ccccc2Cl)s1
> 49 | CCOc1ccccc1NC(=O)C1CCCN(S(C)(=O)=O)C1 (stereo unspecified)
> 52.4 | CCN1C(C(=O)Nc2cc(C)on2)=C(O)c2ccccc2S1(=O)=O
20 (≈ 83.6 µM) | Cc1ccc(S(=O)(=O)N2CCCCC2)cc1
> 44.9 | Cc1cnc(C(=O)OC(C)C(=O)NCc2ccccc2)cn1 (stereo unspecified)
31.9 (≈ 111 µM) | Cc1ccc(C(=O)NCCCc2ccccc2)c(Cl)c1
< 0.3 | COc1ccc2[nH]c(C(=O)N(C)c3ccc(F)cc3F)cc2c1
> 46.1 | O=C(CN1CCCC1)NN=C(c1ccccc1)c1ccccc1
12.2 (≈ 55.2 µM) | Fc1cc(F)nc(NCc2ccccc2)n1
> 46.3 | Cl.OCCNc1nc(N2CCCCC2)nc2ccccc12
38.6 (≈ 139 µM) | COc1ccccc1NC(=O)CCN1CCN(C)CC1
0.2 (≈ 0.711 µM) | O=C(Nc1ccccc1)Nc1ccc(C(F)(F)F)cn1
1 (≈ 3.73 µM) | Cc1c([N+](=O)[O-])c2ccc(O)cc2n1-c1ccccc1
> 45 | Cc1ccc(C)c(NC(=O)COC(=O)c2ccc[n+]([O-])c2)c1
> 49.6 | CN(C)CCNC(=O)Cn1c(=O)c2cccn2c2ccc(F)cc21

solubility kinetic [µg/mL] | SMILES
> 34.1 | O=C(NCc1ccccn1)Nc1ccccc1
> 42.5 | COc1ccccc1CC(=O)NCCCc1ccccc1
> 66.1 | O=C(c1ccc(S(=O)(=O)Nc2ccccc2F)cc1)N1CCN(c2ccccn2)CC1
> 48.2 | O=C(O)/C=C/C(=O)Nc1ccc2c(c1)C(=O)c1ccccc1C2=O
< 0.4 | CCC(=O)N1CCc2cc(S(=O)(=O)Nc3ccccc3C)ccc21
28.4 (≈ 103 µM) | O=S(=O)(c1ccc(F)cc1)n1cnc2ccccc21
36.9 (≈ 109 µM) | Cc1cccc(-c2noc(CN(C)C(=O)COc3ccccc3)n2)c1
11.8 (≈ 38.3 µM) | O=C(Nc1ccc(Cl)cc1)C(Cl)C(=O)c1ccccc1 (stereo unspecified)
2.8 (≈ 9.08 µM) | CCOc1ccccc1NC(=O)c1ccc2[nH]c(C)c(C)c2c1
> 57.4 | COc1ccc(NC(=O)CN(C)CC(=O)N2CC(=O)Nc3ccccc32)cc1
> 47.3 | O=C(NCCc1ccc(O)c(O)c1)C1COc2ccccc2O1 (stereo unspecified)
> 48.4 | CC(NC(=O)CCN1C(=O)c2ccccc2C1=O)c1ccccc1 (stereo unspecified)
8.6 (≈ 27.3 µM) | COc1ccc(C)cc1NC(=O)CSCc1ccccc1C
27.6 (≈ 93.8 µM) | COc1ccc2[nH]c(=O)c(CNc3ccccc3C)cc2c1
17.2 (≈ 59.9 µM) | Cc1ccc(C(=O)N2CCCc3ccccc32)c(F)c1F
1.2 (≈ 3.98 µM) | COc1ccc(Cl)cc1C(=O)Nc1nc2ccccc2[nH]1
24.7 (≈ 61.2 µM) | Cc1ccc(S(=O)(=O)CC(=O)N2CCN(c3ccc([N+](=O)[O-])cc3)CC2)cc1
> 44.8 | Cc1c(C(=O)CN2CCCC(C)(C)C2)c2ccccc2n1C
12.8 (≈ 30.7 µM) | O=C(CN1CCN(S(=O)(=O)c2ccccc2F)CC1)N1CCc2ccccc2C1
4.9 (≈ 14.5 µM) | COc1ccc(NCC(=O)n2c(C)c(C)c3ccccc32)cc1OC
3.2 (≈ 7.65 µM) | CC(SCC(=O)Nc1ccccc1Br)c1nc2ccccc2c(=O)[nH]1 (stereo unspecified)
0.6 (≈ 1.84 µM) | COc1ccc(OC)c2sc(N3CCc4ccccc4C3)nc12
0.8 (≈ 2.7 µM) | COc1ccccc1NC(=O)NC1CCCc2ccccc21 (stereo unspecified)
6.9 (≈ 20.8 µM) | Cc1ccc(NC(=O)COC(=O)CCc2ccccc2)c(Cl)c1
6.8 (≈ 20.6 µM) | CC(=O)Nc1ccc(S(=O)(=O)NC2Cc3ccccc3C2)cc1
> 42.8 | Cn1cccc1C(=O)Nc1ccc(N2CCOCC2)cc1
